≈ marks a conversion by molar mass, not a printed value.
How the values were obtained:
[1] = system: Plasma; format: functional, Homo sapiens
Description: Anticoagulant activity in human plasma assessed as concentration required to double activated partial thromboplastin time

[2] = target: T1, Trypsin (Homo sapiens, UniProt P07477+P07478+P35030); format: protein assay
Description: Inhibition of human trypsin assessed as release of p-nitroanilide from chromogenic substrate

[3] = in vivo; details: dog, po, 1 mg/kg
Description: Half life in dog at 1 mg/kg, po

[4] = target: T1, Trypsin; format: protein assay; remark: listed apart in the source
Description: Inhibition of trypsin (unknown origin)

[5] = target: T2, Coagulation factor X (Homo sapiens, UniProt P00742)
[6] = cynomolgus monkey, plasma, iv, 0.4 mg/kg
Description: Plasma concentration in cynomolgus monkey at 400 ug/kg/min, iv

[7] = target: T2, Coagulation factor X; remark: listed apart in the source
[8] = target: T3, Prothrombin (Homo sapiens, UniProt P00734)
[9] = target: T4, Coagulation factor VII/tissue factor (Homo sapiens, UniProt P08709); format: protein-complex assay
T4 sequence (P08709 61-212 limits assumed): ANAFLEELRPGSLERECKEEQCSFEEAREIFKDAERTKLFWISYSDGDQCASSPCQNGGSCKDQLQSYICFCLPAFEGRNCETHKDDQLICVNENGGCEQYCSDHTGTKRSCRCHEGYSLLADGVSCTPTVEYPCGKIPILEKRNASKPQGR
T4 sequence (P08709 213-466 limits assumed): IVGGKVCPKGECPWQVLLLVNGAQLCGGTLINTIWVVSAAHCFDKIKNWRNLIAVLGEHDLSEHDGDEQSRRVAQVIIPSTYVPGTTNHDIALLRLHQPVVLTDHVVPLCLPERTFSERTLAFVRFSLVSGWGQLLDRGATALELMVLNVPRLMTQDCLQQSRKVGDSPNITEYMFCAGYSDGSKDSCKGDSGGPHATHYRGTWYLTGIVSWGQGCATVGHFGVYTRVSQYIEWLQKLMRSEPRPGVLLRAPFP
T4 sequence (P13726 33-295 partner limits assumed): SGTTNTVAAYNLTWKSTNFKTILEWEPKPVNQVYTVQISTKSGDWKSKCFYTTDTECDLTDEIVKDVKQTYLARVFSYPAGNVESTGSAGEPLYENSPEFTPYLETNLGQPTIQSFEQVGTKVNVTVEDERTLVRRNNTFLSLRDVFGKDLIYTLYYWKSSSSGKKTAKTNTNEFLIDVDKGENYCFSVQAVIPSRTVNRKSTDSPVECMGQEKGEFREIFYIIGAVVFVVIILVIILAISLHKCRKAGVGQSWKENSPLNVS

[10] = physchem; details: buffer, pH 7.4
Description: Aqueous solubility at pH 7.4

[11] = target: T3, Prothrombin; remark: listed apart in the source
[12] = target: T4, Coagulation factor VII/tissue factor; format: protein-complex assay; remark: listed apart in the source
[13] = target: T3, Prothrombin; remark: listed apart in the source
Description: Binding affinity to thrombin (unknown origin)

[14] = cynomolgus monkey, plasma, iv, 0.06 mg/kg
Description: Plasma concentration in cynomolgus monkey at 60 ug/kg/min, iv

T2 sequence (P00742 41-179 limits assumed): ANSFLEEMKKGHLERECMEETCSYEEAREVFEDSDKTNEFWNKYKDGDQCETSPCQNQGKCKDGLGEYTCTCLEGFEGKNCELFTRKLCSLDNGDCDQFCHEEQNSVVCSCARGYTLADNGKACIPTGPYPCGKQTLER
T2 sequence (P00742 235-488 limits assumed): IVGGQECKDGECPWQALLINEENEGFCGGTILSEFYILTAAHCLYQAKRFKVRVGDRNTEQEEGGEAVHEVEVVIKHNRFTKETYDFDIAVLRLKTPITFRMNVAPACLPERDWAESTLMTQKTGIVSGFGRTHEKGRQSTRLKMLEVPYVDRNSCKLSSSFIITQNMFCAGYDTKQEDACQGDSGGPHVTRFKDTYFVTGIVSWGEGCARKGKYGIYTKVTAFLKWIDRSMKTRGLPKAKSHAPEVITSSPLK

Compound: O=C(Cn1c(Cl)cnc(NCC(F)(F)c2cccc[n+]2[O-])c1=O)NCc1cc(Cl)ccc1-n1cnnn1
- 2aPTT [1]: 130 nM

Compound: O=C(Cn1c(Cl)cnc(NCC(F)(F)c2cccc[n+]2[O-])c1=O)NCc1ccccc1F
- 2aPTT [1]: 400 nM

Compound: Cc1cnc(NCCc2ccccc2)c(=O)n1CC(=O)NCc1ccc2[nH]ccc2c1
- Ki [2]: > 100 µM

Compound: Cc1cnc(NCCc2ccccc2)c(=O)n1CC(=O)NCc1cc2cc[nH]c2cn1
- Ki [2]: 95 µM

Compound: N#Cc1cnc(NCC(F)(F)c2ccccn2)c(=O)n1CC(=O)NCc1ncccc1F
- half-life [3]: 6.6 to 9.7 h
- Ki [4]: 213 µM
- 2aPTT [1]: 410 nM

Compound: CC(C)Nc1nc(Cl)c(-c2cc(N)cc(C(=O)O)c2)n(CC(=O)NCc2ccc(C(=N)N)cc2)c1=O
- IC50 [5]: > 100 µM
- Cp [6]: 107 µg/mL

Compound: O=c1oc(-c2c(F)cccc2F)nc2cc(C(F)(F)F)ccc12
- IC50 [7]: 174 µM
- IC50 [8]: 134 µM
- IC50 [9]: 1.4 µM

Compound: O=c1oc(-c2ccccc2F)nc2cnccc12
- IC50 [7]: 90 µM
- IC50 [9]: 2.6 µM

Compound: CC(C)Nc1ccc(-c2cccc(N)c2)c(CC(=O)NCc2ccc(C(=N)N)cc2)c1F
- IC50 [5]: > 30 µM

Compound: Cc1nc(N)ccc1CNC(=O)Cn1c(C)ccc(NS(=O)(=O)Cc2ccccc2)c1=O [L-374087]
- Ki [2]: 3.2 µM

Compound: Cc1nc(N)ccc1CNC(=O)Cn1c(C)cnc(NCC(F)(F)c2ccccn2)c1=O
- Ki [4]: 0.8 µM
- 2aPTT [1]: 200 nM

Compound: Cc1cnc(NCC(F)(F)c2ccccn2)c(=O)n1CC(=O)NCc1ncccc1F
- Ki [4]: 252 µM
- 2aPTT [1]: 670 nM

Compound: O=C(Cn1c(Cl)cnc(NCC(F)(F)c2cccc[n+]2[O-])c1=O)NCc1ncccc1F
- solubility [10]: 44 µg/mL (≈ 93.9 µM)
- 2aPTT [1]: 540 nM

Compound: O=C(Cn1c(Cl)cnc(NCC(F)(F)c2ccccn2)c1=O)NCc1ncccc1F [DPOC-4088]
- half-life [3]: 6.6 to 9.7 h
- solubility [10]: 11 µg/mL (≈ 24.3 µM)
- Ki [4]: 202 µM
- 2aPTT [1]: 780 nM

Compound: N=C(N)NCCC[C@H](NC(=O)[C@H](Cc1cccnc1)NC(=O)[C@H](Cc1ccccc1)NS(=O)(=O)c1ccccc1)C(=O)c1nccs1
- IC50 [11]: 100 µM
- IC50 [12]: 0.2 µM

Compound: O=c1oc(-c2c(F)cccc2F)nc2cc([N+](=O)[O-])ccc12
- IC50 [7]: 112 µM
- IC50 [8]: > 200 µM
- IC50 [9]: 0.82 µM

Compound: CCSc1ncc2c(=O)oc(-c3ccccc3F)nc2n1
- IC50 [7]: > 200 µM
- IC50 [8]: > 200 µM
- IC50 [9]: 15 µM

Compound: O=c1oc(-c2ccccc2F)nc2nccnc12
- IC50 [9]: > 200 µM

Compound: O=C(Cn1c(Cl)cnc(NCC(F)(F)c2ccccn2)c1=O)NCc1cc(Cl)ccc1-n1cnnn1
- Ki [13]: 1.4 to 1.5 pM
- 2aPTT [1]: 180 nM

Compound: O=c1oc(-c2c(F)cccc2F)nc2cnccc12
- IC50 [7]: > 200 µM
- IC50 [8]: > 200 µM
- IC50 [9]: 1.3 µM

Compound: O=C(Cn1c(Cl)cnc(NCC(F)(F)c2cccc[n+]2[O-])c1=O)NCc1cc(Cl)ccc1-n1cncn1
- 2aPTT [1]: 200 nM

Compound: Cc1nc(N)ccc1CNC(=O)Cn1c(C)cnc(NCCc2ccccc2)c1=O [L-375378]
- Cp [14]: 3 µg/mL

Compound: Cc1cnc(NCCc2ccccn2)c(=O)n1CC(=O)NCc1cc2cc[nH]c2cn1
- Ki [2]: 200 µM

Compound: O=C(Cn1c(Cl)cnc(NCC(F)(F)c2ccccn2)c1=O)NCc1cc(Cl)ccc1-n1cncn1
- 2aPTT [1]: 170 nM

Compound: O=C(Cn1c(Cl)cnc(NCC(F)(F)c2cccc[n+]2[O-])c1=O)NCc1ncccc1Cl
- 2aPTT [1]: 470 nM

Compound: Cc1cnc(NCCc2ccccn2)c(=O)n1CC(=O)NCc1ccc2[nH]ccc2c1
- Ki [2]: 290 µM

Compound: O=c1oc(-c2ccccc2F)nc2ncccc12
- IC50 [7]: 32 µM
- IC50 [8]: 14.4 µM
- IC50 [9]: 2.8 µM

Compound: Cc1ccccc1-c1nc2c(cnn2C)c(=O)o1
- IC50 [7]: > 200 µM
- IC50 [8]: 129 µM
- IC50 [9]: 18 µM

Reference: ChEMBL document CHEMBL4196003, “The selectivity and bioavailability improvement of novel oral anticoagulants: An overview” (Eur J Med Chem, 2018)
